Data set [1] has as its target STAT3 and the TET1 CpG island (Homo sapiens, UniProt P40763). In words: Electrophoretic mobility shift assay (EMSA). The data set is classed as biochemical. Here is the method: EMSA was conducted with EMSA Assay Kit (Signosis, Santa Clara, Calif.) according to the manufacturer's protocol with minor modifications. Briefly, purified STAT3 protein was incubated with Biotin-labeled TET1-CPG probe (hot probe) and/or cold probe, and then protein/DNA complexes were separated on a non-denaturing polyacrylamide gel. Bands were detected using Streptavidin-HRP conjugate and a chemiluminescent substrate. The sequences of the TET1-CPG probe are: Forward: 5′ Biotin-[…]-3′ (SEQ ID NO: 11); Reverse: 5′ Biotin-[…]-3′ (SEQ ID NO: 12).
On the technique in general: Mobility shift assays separate free from complexed probe on a gel.

For data set [2], the system named is THP-1 cells. In words: MTS cell viability, THP-1. Particulars: Homo sapiens, 48 hrs, unit inferred. Type of data set: cell-based. The method, then:
(§1) In order to identify chemical compounds that may target TET1 signaling, the drug-sensitivity/gene expression database of a total of 20,602 chemical compounds in the NCI-60 collection of cancer cell samples was searched.
(§2) All cell lines were authenticated through STR profiling yearly.
(§3) These experiments were conducted as described previously (Jiang, X., et al., Blockade of miR-150 Maturation by MLL-Fusion/MYC/LIN-28 Is Required for MLL-Associated Leukemia, Cancer Cell 22:524-35 (2012); Li, Z., et al., miR-196b directly targets both HOXA9/MEIS1 oncogenes and FAS tumour suppressor in MLL-rearranged leukaemia, Nat Commun 2:688 (2012)) with ApoLive-Glo Multiplex Assay Kit, or CellTiter 96 AQueous Non-Radioactive Cell Proliferation Assay Kit (Promega, Madison, Wis.).

Data set [3] concerns KOCL-48 cells. As to the kind of experiment: MTS cell viability, KOCL-48. The data set is classed as cell-based. As to conditions: 48 hrs, unit inferred. Here is the method: as §1, §2, §3
The subject of data set [4] is MONOMAC-6, THP-1, KOCL-48 and KASUMI-1 cells. As to the kind of experiment: MTS cell viability, four TET1-high AML cell lines together. Type of data set: cell-based. Here is the method: as §1, §2, §3
Data set [5] concerns STAT3 and STAT5 phosphorylation. In words: Western blotting of STAT phosphorylation in MONOMAC-6 cells. The data set is classed as cell-based. As to conditions: 250 nM, 0 min to 24 hrs. The text has this: FIG. 10. […] Relative cell viabilities are shown. […] Levels of TET1 transcripts are shown. […] (e-h) MONOMAC-6, THP-1 and NB4 cells were transfected with control siRNA (siNC), siSTAT3, or siSTAT5. Expression levels of STAT5 (e), STAT3 (f), TET2 (g) and TET3 (h) were detected by qPCR 48 hrs post-transfection. (i) THP-1 cells were transfected with control siRNA (siNC), siTET1, siJAK1 or siSTAT5. Gene expression levels were detected by qPCR 48 hrs post-transfection. […] (j) ChIP-qPCR assay was carried out 48 hrs after drug treatment. Enrichment of TET1 or IgG at the JAK1 promoter region and other regions are shown. […] Protein levels were detected thereafter. […] Expression levels of TET1, HIF2 a, IL2RA and FRA2 (1) were detected through qPCR. The enrichment of STAT5 on the promoters of TET1 (Site 2; CpG), HIF2a, IL2RA and FRA2 (m) was determined through ChIP-qPCR assays. *, P<0.05; **, P<0.01, two-tailed t-test. Error bar indicates SD of triplicate experiments.
Cells were washed twice with ice-cold phosphate-buffered saline (PBS) and ruptured with RIPA buffer (Pierce, Rockford, Ill.) containing 5 mM EDTA, PMSF, cocktail inhibitor, and phosphatase inhibitor cocktail. Cell extracts were microcentrifuged for 20 min at 10,000 g and supernatants were collected. Cell lysates were resolved by SDS-PAGE and transferred onto PVDF membranes. […]
A general note: A western blot detects proteins with antibodies after separation by electrophoresis.

In data set [6] the test system is TET1-high AML (including MONOMAC-6, THP-1, and KASUMI-1) cells. In words: MTS viability of AML cell lines versus JAK/STAT inhibitors. As to conditions: MTS 48 hrs; up to 500 nM. The data set is classed as cell-based. Here is the method: FIG. 4. […] (a) Structures of NSC-370284 and UC-514321. […] Cells were treated with drugs at indicated doses. Cell viability was detected by MTS 48 hrs post-treatment. Error bar indicates SD of triplicate experiments. […] Secondary BMT recipient mice were transplanted with primary leukemic BM cells with MLL-AF9 (f) or AML-ETO9a (g). […] Kaplan-Meier curves are shown. The P values were determined by log-rank test. […] Secondary BMT recipient mice were transplanted with primary leukemic BM cells with MLL-AF10 or FLT3-ITD/NPM1^mut. […] Kaplan-Meier curves are shown. The P values were determined by log-rank test. (j) Wright-Giemsa staining of mouse PB and BM, or H&E staining of mouse spleen and liver of MLL-AF9 AML secondary BMT recipients with or without drug treatment.
as §3

A short description of data set [7]: in vivo. On the set-up: species or system C57BL/6 mice. Particulars: C57BL/6, mouse. An excerpt: FIG. 17. […] Error bar indicates SD of triplicate experiments.

STAT3 and the TET1 CpG island, sequence (P40763 whole entry, species assumed): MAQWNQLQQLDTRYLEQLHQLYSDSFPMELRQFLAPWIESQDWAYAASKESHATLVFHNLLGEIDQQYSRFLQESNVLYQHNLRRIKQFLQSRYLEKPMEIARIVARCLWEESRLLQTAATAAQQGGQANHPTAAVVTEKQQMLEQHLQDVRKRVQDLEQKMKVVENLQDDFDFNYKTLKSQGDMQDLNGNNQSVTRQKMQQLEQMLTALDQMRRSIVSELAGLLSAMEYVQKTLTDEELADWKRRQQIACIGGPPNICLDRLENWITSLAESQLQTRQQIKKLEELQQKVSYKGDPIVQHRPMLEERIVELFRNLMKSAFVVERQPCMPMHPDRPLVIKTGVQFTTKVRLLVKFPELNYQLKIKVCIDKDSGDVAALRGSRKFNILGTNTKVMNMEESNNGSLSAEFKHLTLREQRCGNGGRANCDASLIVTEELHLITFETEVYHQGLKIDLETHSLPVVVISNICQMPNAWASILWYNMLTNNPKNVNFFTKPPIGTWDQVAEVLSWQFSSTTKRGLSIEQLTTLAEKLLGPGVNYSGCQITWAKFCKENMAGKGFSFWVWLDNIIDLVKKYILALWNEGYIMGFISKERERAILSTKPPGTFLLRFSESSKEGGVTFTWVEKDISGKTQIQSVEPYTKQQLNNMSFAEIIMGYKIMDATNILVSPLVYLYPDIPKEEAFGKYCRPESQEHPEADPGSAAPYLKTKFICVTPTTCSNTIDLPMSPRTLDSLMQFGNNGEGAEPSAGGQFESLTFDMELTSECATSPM

As for `COc1cc(C(c2cc3c(cc2O)OCO3)N2CCCC2)cc(OC)c1OC` (centres unmarked) [NSC-370284, 6-(1-Pyrrolidinyl(3,4,5-trimethoxyphenyl)methyl)-1,3-benzodioxol-5-ol], the “association between STAT3 and the TET1 CpG island” value in data set [1] was “almost be completely blocked”. Besides, the IC50 – broadly, the concentration needed to halve the response being measured – in data set [2] is 0.356 nM; in data set [3], 38.2 nM; in data set [4] (average over the cell lines, unit inferred) it was 9.75 nM. The “inhibition of cell viability of all four TET1-high AML cell lines” value in data set [4] (0, 50, 200, 500 nM, MTS 48 hours, among top 20 candidates) is “most significant effects in inhibiting cell viability”. Also, the “cell viability at low dose, short term” value in data set [4] (25 nM, 24 hours, MONOMAC-6, THP-1 and KOCL-48 cells) is on record as “very minor decrease”. In data set [5], the “levels of STAT3 and STAT5 phosphorylation” value was “no significant alterations”.
For the compound `CC(C)(C)c1cc(C(c2cc3c(cc2O)OCO3)N2CCOCC2)cc(C(C)(C)C)c1O` (centres unmarked) [UC-514321, 6-{[4-Hydroxy-3,5-bis(2-methyl-2-propanyl)phenyl](4-morpholinyl)methyl}-1,3-benzodioxol-5-ol], in data set [6], the “effect in repressing viability of TET1-high AML cells compared with NSC-370284 and other JAK/STAT inhibitors” value is given as “enhanced effect”. Also, in data set [7], the half-life (in general, the time needed for the level to fall by half in the phase considered) was 11 h. In addition, in data set [7] (ip, 15 mg/kg), the total exposure AUC(0-inf) (commonly the area under the concentration-time curve extrapolated to infinity) came to 29400 ± 2750 ng·h/mL; the Clearance was 22.7 ± 1.3 mL/min/kg; the mean residence time (MRT) – broadly, the average time that molecules of a dose stay in the body – was 16.1 ± 1.79 h; the “Volume of Distribution” value was 21.66 ± 1.74 L/kg. In data set [7] (ip, 15 mg/kg), the half-life was 11 ± 2.51 h.

(Values after patent US11311513B2, “Methods, agents, and compositions for the treatment of acute myeloid leukemia” (UNIVERSITY OF CINCINNATI, priority 2017, dated 2022).)
